Measured values as given in patent US5792457A, “Antibody recognizing endothelial cell ligand for leukocyte CR3” (priority 1995, dated 1998).
pIC50: −log10 of the molar value.

Experiments:
[1] = target: T1, CD11b/CD18 (Homo sapiens, UniProt P05107+P11215); assay: Downmodulation of CD11b/CD18 on macrophages (binding of C3bi-coated erythrocytes); type: cell-based; conditions: peptides 0.5 mM
T1 construct: peptide-coated wells, C3bi-erythrocyte rosetting
Method: FIG. 27 is a bar graph representation of the downmodμlation of CD11b/CD18 by FHA-peptides. mAb IB4 (50 μg/ml) served as a positive control. Data represent means±standard deviations of triplicate experiments with 6 wells/peptide.
Human monocytes were purified from buffy coats on Percoll gradients and cultured in 12.5% human serum in Teflon beakers. Macrophages were harvested from Teflon beakers after 6-8 days and suspended in HAP buffer. Terasaki wells were coated with 5 μl of peptides (0.5 mM) or anti-CD18 mAb IB4 (50 μg/ml). Control wells were coated with HAP. After 2 hours of incubation at RT, 5 μl of macrophages (5×10^5 /ml HAP) were added and allowed to spread for 45 mins. at 37° C. […] IgM-coated erythrocytes in buffer served as negative control. After washing, the number of erythrocytes bound per 100 leukocytes (adherence index) was quantitated visually under an inverted microscope.

[2] = system: peripheral white blood cells; assay: Rat meningitis model: peripheral white blood cell concentrations; type: in vivo, female Wistar rats; conditions: following i.v. administration
Method: (§1) Three hours after LOS inoculation, 5 μCi of ^125 I-radiolabelled albumin in 50 μl normal saline was administered intravenously. One hour later, CSF was collected via intracisternal puncture and blood samples were collected via intracardiac puncture. CSF leukocytosis was determined by manually counting white blood cells using a hemacytometer, and blood-brain barrier permeability was determined as the percent of radioactivity in whole blood that was present in the CSF. Blood samples were obtained immediately prior to inoculation, immediately prior to treatment, and at 4 hours post-inoculation for determination of peripheral white blood cell concentrations.

[3] = Stability of FHA II peptide in 50% rabbit plasma; type: in vitro ADME; conditions: 37° C.
Method: To determine the stability of the FHA II peptide, the unmodified or the acetylated-amidated peptide were incubated in 50% rabbit plasma at 37° C.

[4] = system: Factor Xa procoagulant activity on THP-1 cells; assay: Generation of Factor Xa by monocytes (THP-1), clotting assay; type: cell-based; conditions: for Factor Xa / Clotting time: peptides 0.5 mM; for Clotting time: mean ± SD of at least 3 experiments
Method: Factor Xa generation was determined by a modification of the method of Miletich et al. (1978), J. Biol. Chem. 253: 6908-6916. THP-1 cells (ATCC; […]) resuspended in RPMI 1640 (Bio Whittaker, Walkersville,Md.) were incubated with 100 μM ADP (Sigma), 2.5 mM CaC2, 1 or 5 μg/ml Factor X (Hematologic Technologies Inc.) and 0.5 mM peptides at room temperature. After 20 minutes, 100 μl of the reaction mixture was transferred to 37° C. and supplemented with 100 μl of bovine factor VII- and Factor X-deficient plasma (Sigma). Coagulation was initiated by adding 100 μl of 25 mM CaC2 and the clotting time was determined. Factor Xa procoagulant activity (ng/ml) was calculated by means of a standard curve constructed by serial concentrations of Factor Xa (Hematologic Technologies Inc.) from 50 to 250 ng/ml.

[5] = system: 125I-Factor X binding to human neutrophils (CD11b/CD18); assay: Inhibition of 125I-Factor X binding to neutrophils; type: cell-based; conditions: for inhibition of 125I-Factor X binding to neutrophils: peptides 0.5 mM, native FHA 0.3 μM
Method: FIG. 15 is a bar graph representation of the inhibition of ^125 I-Factor X binding to neutrophils by FHA, FHA- or Factor X-peptides as identified in Table 6. The concentration of inhibiting substances was: peptides 0.5 mM, native FHA 0.3 μM. Values represent the mean±standard deviation of triplicate experiments.
FIG. 16 is a graphical representation of the FHA, FHA- or Factor X-peptide concentration effect on the inhibition of ^125 I-Factor X binding to neutrophils. FHA peptide II (Square) and Factor X peptide II (Circle) at 10^-2 to 5×10^2 μM; FHA at 10^-6 to […] (triangle). Values are representative of triplicate experiments (standard deviations <15%).
Human Factor X (Sigma or Hematologic Technologies Inc.) was labeled with ^125 I using Iodogen (Pierce Chemical Co.) Human neutrophils were isolated from heparinized blood according to the manufacturer's specification using Neutrophil Isolation Medium (Cardinal Associates, Santa Fe, N. Mex.) and washed three times with 5 mM EDTA-phosphate-buffered saline (PBS), pH 7.2, at 4° C. To eliminate platelet contamination, neutrophils were incubated with autologous serum containing 5 mM EDTA for 30 mins. at 37° C., washed three times with ice-cold PBS, pH 7.2, and resuspended in RPMI 1640 tissue culture medium (Whittaker M.A. Bioproducts, Walkersville, Md.) at 4° C. Binding of ^125 I-Factor X to neutrophils was measured based on a method described by Altieri et al. (1991) Science 254: 1200-1202. Briefly, 200 μl of neutrophils (1.5×10^7 /ml) were supplemented with 17.5 μl of 50 mM CaCl2, stimulated with 3.5 μl of 100 μM NH2 -formyl-Met-Leu-Phe (Sigma), and mixed with 30 μl of 10.3 μg/ml ^125 I-Factor X and 100 μl of 1.75 mM of peptide. Buffer alone and a peptide of scrambled sequence served as controls in each of the 3 experiments. After incubation for 20 mins. at room temperature, neutrophil-bound ^125 I-Factor X was separated from unbound ^125 I-Factor X by centrifugation of 300 μl aliquots through 50 μl of a mixture of Hi phenyl silicone oil DC 550 and methyl silicone oil DC 200 5:1 (Nye Inc. Specialty Lubricants, New Bedford, Mass.) at 12,000×g for 2 mins. Aliquots of the supernatant (cell free ^125 I-Factor X) and the cell pellet (cell bound ^125 I-Factor X) were counted in a gamma-counter. Nonspecific binding (~50,000 cpm) was determined by adding a 100 fold excess of unlabeled Factor X, and subtracted from total radioactivity (~500,000 cpm for controls).

[6] = system: blood-brain barrier permeability; assay: Rat meningitis model (LOS): blood-brain barrier permeability (125I-albumin); type: in vivo, female Wistar rats; conditions: for BBB permeability: percent of radioactivity in whole blood present in CSF
Method: Briefly, anesthetized female Wistar rats were placed under a micromanipulator and inoculated intracisternally with a 25 gauge needle. After removal of 50 μl of CSF (without visible blood contamination), rats were inoculated intracisternally with 50 μl (20 ng) of LOS using a 1 ml syringe with a 25 gauge needle. Ten to fifteen minutes after inoculation with LOS, the rats were treated by intravenous administration of the test substance: a solution of an FHA peptide in PBS, a solution of a control peptide in PBS, or an equal volume of PBS alone.
as §1

[7] = ciliary extracts; cited from earlier work

T1 sequence (P05107 23-769, other chains not shown): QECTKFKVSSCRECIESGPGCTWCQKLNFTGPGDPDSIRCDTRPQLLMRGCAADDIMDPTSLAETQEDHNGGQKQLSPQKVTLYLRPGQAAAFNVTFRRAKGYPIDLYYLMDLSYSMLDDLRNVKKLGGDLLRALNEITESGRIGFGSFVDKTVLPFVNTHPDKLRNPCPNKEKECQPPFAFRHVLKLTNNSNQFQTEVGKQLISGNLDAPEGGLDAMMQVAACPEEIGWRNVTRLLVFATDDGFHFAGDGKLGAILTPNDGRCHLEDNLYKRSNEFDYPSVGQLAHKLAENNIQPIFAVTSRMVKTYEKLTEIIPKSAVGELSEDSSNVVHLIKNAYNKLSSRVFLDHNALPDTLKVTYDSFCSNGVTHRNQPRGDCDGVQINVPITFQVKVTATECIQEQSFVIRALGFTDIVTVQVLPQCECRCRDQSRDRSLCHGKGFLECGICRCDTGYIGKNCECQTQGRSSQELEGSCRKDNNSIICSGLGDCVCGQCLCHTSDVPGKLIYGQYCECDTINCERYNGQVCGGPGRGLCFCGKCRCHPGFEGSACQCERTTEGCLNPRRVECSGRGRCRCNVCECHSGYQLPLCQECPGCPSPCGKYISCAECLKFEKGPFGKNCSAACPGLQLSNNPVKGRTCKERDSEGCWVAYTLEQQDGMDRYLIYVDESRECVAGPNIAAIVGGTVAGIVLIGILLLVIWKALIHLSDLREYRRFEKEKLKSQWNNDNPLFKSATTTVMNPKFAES

Row | Substance | downmodulation of CD11b/CD18 (in words) [1] | Factor Xa [4] | Clotting time [4] | pIC50 [5] | other results
1 | AADPHQGVLAQGDIIMDAKG [FHA Cc] | no significant effect |  |  |  | 
2 | Ac-ETKEVDG-NH2 [Acetyl/Amide-FHA II] |  |  |  |  | neutropenia [2]: No neutropenia was observed; stability in plasma (in words) ([3]; 48 hours): remained unchanged over 48 hours
3 | DEETVK [scrambled FHA II, reference compound] |  | 165.0 ng/mL | 23.1 ± 1.0 s |  | Factor Xa ([4]; control FHA II peptide): 165 ng/mL
4 | ETKEVDG [FHA II] |  | 86.0 ng/mL | 30.0 ± 5.0 s | 5.00 | effect on Factor Xa generation (in words) [4]: did not interfere with the generation of Factor Xa procoagulant activity; time in which concentration decreased by half [3]: 4 to 6 h; inhibition of 125I-Factor X binding to neutrophils [5]: 87±8%
5 | GTLLLRNDALTENGTVTISA [FHA Cd] | no significant effect |  |  |  | 
6 | GYDTKQEDG [Factor X II] |  | < 10 ng/mL | 55.2 ± 4.0 s | 3.30 | reduction of Factor Xa production ([4]; 0.5 mM, vs scrambled FHA II, 20 min): > 90%
7 | LGYQAK (UniProt P12255 1979-1984, looked up, fragment) [FHA Ia] |  | 57.4 ng/mL | 34.1 ± 1.1 s |  | 
8 | RADPHQGVLAQGDIIMDAKG [FHA Cb] | no significant effect |  |  |  | 
9 | RGDPHQGVLAQGDIIMDAKG [FHA Ca] |  |  |  |  | BBB permeability ([6]; 50 nmol): 5.8 ± 2.7%; BBB permeability ([6]; 100 nmol): 3.0 ± 2.2%; Inhibition of blood-brain barrier permeability (in words) ([6]; rat, in vivo): appeared to be dose dependent; neutropenia [2]: No neutropenia was observed; reduction of binding of C3bi-coated erythrocytes to macrophages ([1]; IB4 50 μg/ml): 61±7%
10 | native FHA: Filamentous hemagglutinin, 220kD surface associated protein of Bordetella pertussis (List Biologicals) |  |  |  | 7.00 | binding to lactosylceramide (in words) [7]: binds to lactosylceramide; inhibition of 125I-Factor X binding to neutrophils [5]: 70±4%
